These results are taken from PubChem BioAssay AID306 (DTP/NCI, 2004).

Several values for one entry are separate records, joined by “and”; a condition that tells them apart may be missing. Equal values may be shown once. Toxic doses and inconclusive results are not listed.

The test system of this assay is BDF1 mice, L1210 Methyl-GAG-resistant leukemia, survival T/C. The assay can be described thus: NCI In Vivo Anticancer Drug Screen. Data for tumor model L1210 Leukemia resistant to Methyl-GAG; NSC 32946 (subcutaneous) in B6D2F1 (BDF1) mice. The conditions noted are these: endpoint: mean survival time, higher = longer survival. On the procedure:
The antitumor activity of compounds was measured in mice bearing transplantable tumors. Survival or tumor size were measured and the results are expressed as the measurement made in the treated group (T) divided by the measurement made in the vehicle treated control group (C). The tumor model used in this assay is L1210 Leukemia resistant to Methyl-GAG; NSC 32946 (subcutaneous) in B6D2F1 (BDF1) mice

Where [1] appears, read: dose: 12.5 mg/kg/injection, schedule: Q01DX Z (ip), vehicle: saline.
Setting [2] is: dose: 25.0 mg/kg/injection, schedule: Q01DX Z (ip), vehicle: saline.
The mark [3] stands for this setting: dose: 15.0 mg/kg/injection, schedule: Q01DX Z (ip), vehicle: carboxymethylcellulose (CMC).
Setting [4] is: dose: 30.0 mg/kg/injection, schedule: Q01DX Z (ip), vehicle: carboxymethylcellulose (CMC).
Setting [5] is: dose: 60.0 mg/kg/injection, schedule: Q01DX Z (ip), vehicle: carboxymethylcellulose (CMC).
Where [6] appears, read: dose: 7.5 mg/kg/injection, schedule: Q01DX Z (ip), vehicle: carboxymethylcellulose (CMC).
Setting [7] is: dose: 25.0 mg/kg/injection, schedule: Q01DX Z (ip), vehicle: carboxymethylcellulose (CMC).

With `CN(N=O)C(=O)NC(C=O)C(O)C(O)C(O)CO` (centres undefined), the T/C is 101 % of control under setting [1]; 106 % of control and 113 % of control under setting [2]; 105 % of control and 110 % of control (dose: 50.0 mg/kg/injection, schedule: Q01DX Z (ip), vehicle: saline); 160 % of control (dose: 100.0 mg/kg/injection, schedule: Q01DX Z (ip), vehicle: saline); 90 % of control (dose: 200.0 mg/kg/injection, schedule: Q01DX Z (ip), vehicle: saline).
With `Cc1cc(N(CCCl)CCCl)ccc1N=Nc1ccccc1C(=O)O`, the T/C is, setting by setting: under setting [3], 96 % of control; under setting [4], 99 % of control; under setting [5], 96 % of control.
For `CCCCCCCCCCCCNCCCCCCCCCCCC`, the T/C is, setting by setting: under setting [6], 94 % of control; under setting [3], 101 % of control; under setting [4], 103 % of control.
Consider `O=C(O)CCCc1ccc(N(CCCl)CCCl)cc1`, for which the T/C is, setting by setting: (dose: 6.25 mg/kg/injection, schedule: Q01DX Z (ip), vehicle: carboxymethylcellulose (CMC)) 91 % of control; (dose: 12.5 mg/kg/injection, schedule: Q01DX Z (ip), vehicle: carboxymethylcellulose (CMC)) 98 % of control; under setting [7], 104 % of control.
As for `[I][Hg][CH2]C1COC([CH2][Hg][I])CO1` (centres undefined), the T/C is, setting by setting: (dose: 1.9 mg/kg/injection, schedule: Q01DX Z (ip), vehicle: carboxymethylcellulose (CMC)) 102 % of control; (dose: 3.75 mg/kg/injection, schedule: Q01DX Z (ip), vehicle: carboxymethylcellulose (CMC)) 95 % of control; under setting [6], 102 % of control; under setting [3], 113 % of control; under setting [4], 150 % of control; under setting [5], 107 % of control.
As to `CCN(CC)C(=S)S`, the T/C is 96 % of control (dose: 125.0 mg/kg/injection, schedule: Q01DX Z (ip), vehicle: other); 92 % of control (dose: 250.0 mg/kg/injection, schedule: Q01DX Z (ip), vehicle: other); 96 % of control (dose: 500.0 mg/kg/injection, schedule: Q01DX Z (ip), vehicle: other); 104 % of control and 114 % of control (dose: 1000.0 mg/kg/injection, schedule: Q01DX Z (ip), vehicle: other).
In the case of `O=C1CCC(N2C(=O)c3ccccc3C2=O)C(=O)N1` (centres undefined), the T/C (dose: 18.75 mg/kg/injection, schedule: Q01DX Z (ip), vehicle: carboxymethylcellulose (CMC)) is 96 % of control; the T/C (dose: 37.5 mg/kg/injection, schedule: Q01DX Z (ip), vehicle: carboxymethylcellulose (CMC)) was 102 % of control; the T/C (dose: 75.0 mg/kg/injection, schedule: Q01DX Z (ip), vehicle: carboxymethylcellulose (CMC)) is 102 % of control; the T/C (dose: 150.0 mg/kg/injection, schedule: Q01DX Z (ip), vehicle: carboxymethylcellulose (CMC)) was 94 % of control.
For the compound `CC(=O)N(C)C`, the T/C (dose: 125.0 mg/kg/injection, schedule: Q01DX Z (ip), vehicle: saline) was 100 % of control; the T/C (dose: 250.0 mg/kg/injection, schedule: Q01DX Z (ip), vehicle: saline) is 94 % of control; the T/C (dose: 500.0 mg/kg/injection, schedule: Q01DX Z (ip), vehicle: saline) is 102 % of control; the T/C (dose: 1000.0 mg/kg/injection, schedule: Q01DX Z (ip), vehicle: saline) was 109 % of control; the T/C (dose: 2000.0 mg/kg/injection, schedule: Q01DX Z (ip), vehicle: saline) was 105 % of control; the T/C (dose: 4000.0 mg/kg/injection, schedule: Q01DX Z (ip), vehicle: saline) is 154 % of control.
Regarding `CC[C@H](c1ccc(O)cc1)[C@@H](CC)c1ccc(O)cc1`, the T/C was 100 % of control (dose: 4.0 mg/kg/injection, schedule: Q01DX Z (sc), vehicle: steriod suspending solution); 100 % of control (dose: 8.0 mg/kg/injection, schedule: Q01DX Z (sc), vehicle: steriod suspending solution); 95 % of control (dose: 16.0 mg/kg/injection, schedule: Q01DX Z (sc), vehicle: steriod suspending solution); 105 % of control (dose: 32.0 mg/kg/injection, schedule: Q01DX Z (sc), vehicle: steriod suspending solution).
In the case of `CN(Cc1cnc2nc(N)nc(N)c2n1)c1ccc(C(=O)N[C@@H](CCC(=O)O)C(=O)O)cc1`, the T/C is, setting by setting: (dose: 0.31 mg/kg/injection, schedule: Q01DX Z (ip), vehicle: other) 157 % of control and 164 % of control (2×); (dose: 0.43 mg/kg/injection, schedule: Q01DX Z (ip), vehicle: other) 160 % of control; (dose: 0.62 mg/kg/injection, schedule: Q01DX Z (ip), vehicle: other) 235 % of control and 245 % of control and 246 % of control; (dose: 0.87 mg/kg/injection, schedule: Q01DX Z (ip), vehicle: other) 255 % of control; (dose: 1.25 mg/kg/injection, schedule: Q01DX Z (ip), vehicle: other) 262 % of control and 270 % of control and 276 % of control; (dose: 1.5 mg/kg/injection, schedule: Q01DX Z (ip), vehicle: other) 194 % of control. The T/C is 301 % of control (dose: 1.75 mg/kg/injection, schedule: Q01DX Z (ip), vehicle: other); 178 % of control (dose: 2.5 mg/kg/injection, schedule: Q01DX Z (ip), vehicle: other); 234 % of control (dose: 3.0 mg/kg/injection, schedule: Q01DX Z (ip), vehicle: other); 116 % of control (dose: 3.5 mg/kg/injection, schedule: Q01DX Z (ip), vehicle: other); 95 % of control and 118 % of control (dose: 5.0 mg/kg/injection, schedule: Q01DX Z (ip), vehicle: other).
As for `O=c1[nH]c(=O)n(C2CC(O)C(CO)O2)cc1F` (centres undefined), the T/C is, setting by setting: under setting [7], 112 % of control; (dose: 100.0 mg/kg/injection, schedule: Q01DX Z (ip), vehicle: carboxymethylcellulose (CMC)) 121 % of control; (dose: 200.0 mg/kg/injection, schedule: Q01DX Z (ip), vehicle: carboxymethylcellulose (CMC)) 87 % of control and 103 % of control.
In the case of `CCN(CC)c1ccc2cc3ccc(=[N+](CC)CC)cc-3oc2c1`, the T/C runs as follows: (dose: 0.08 mg/kg/injection, schedule: Q01DX Z (ip), vehicle: carboxymethylcellulose (CMC)) 117 % of control; (dose: 0.16 mg/kg/injection, schedule: Q01DX Z (ip), vehicle: carboxymethylcellulose (CMC)) 95 % of control; (dose: 0.31 mg/kg/injection, schedule: Q01DX Z (ip), vehicle: carboxymethylcellulose (CMC)) 91 % of control; (dose: 0.32 mg/kg/injection, schedule: Q01DX Z (ip), vehicle: carboxymethylcellulose (CMC)) 103 % of control; (dose: 0.63 mg/kg/injection, schedule: Q01DX Z (ip), vehicle: carboxymethylcellulose (CMC)) 91 % of control; (dose: 1.25 mg/kg/injection, schedule: Q01DX Z (ip), vehicle: carboxymethylcellulose (CMC)) 87 % of control. For the same compound, the T/C was 91 % of control (dose: 2.5 mg/kg/injection, schedule: Q01DX Z (ip), vehicle: carboxymethylcellulose (CMC)) and 95 % of control (dose: 5.0 mg/kg/injection, schedule: Q01DX Z (ip), vehicle: carboxymethylcellulose (CMC)).
Turning to `Cn1cc(NC(=O)c2cc(NC(=O)CN=C(N)N)cn2C)cc1C(=O)NCCC(=N)N`, the T/C is, setting by setting: (dose: 6.3 mg/kg/injection, schedule: Q01DX Z (ip), vehicle: saline) 112 % of control; under setting [1], 102 % of control; under setting [2], 91 % of control.
As for `N[C@@H](Cc1ccc(N(CCCl)CCCl)cc1)C(=O)O`, the T/C was 92 % of control (dose: 1.25 mg/kg/injection, schedule: Q01DX Z (ip), vehicle: saline); 106 % of control (dose: 2.5 mg/kg/injection, schedule: Q01DX Z (ip), vehicle: saline); 123 % of control (dose: 5.0 mg/kg/injection, schedule: Q01DX Z (ip), vehicle: saline); 92 % of control (dose: 10.0 mg/kg/injection, schedule: Q01DX Z (ip), vehicle: saline).
Take `S=c1nc[nH]c2nc[nH]c12`: the T/C by setting is: (dose: 12.5 mg/kg/injection, schedule: Q01DX Z (ip), vehicle: other) 107 % of control; (dose: 37.5 mg/kg/injection, schedule: Q01DX Z (ip), vehicle: other) 252 % of control; (dose: 50.0 mg/kg/injection, schedule: Q01DX Z (ip), vehicle: other) 153 % of control and 192 % of control; (dose: 75.0 mg/kg/injection, schedule: Q01DX Z (ip), vehicle: other) 157 % of control; (dose: 100.0 mg/kg/injection, schedule: Q01DX Z (ip), vehicle: other) 164 % of control; (dose: 200.0 mg/kg/injection, schedule: Q01DX Z (ip), vehicle: other) 97 % of control and 119 % of control. The T/C (dose: 300.0 mg/kg/injection, schedule: Q01DX Z (ip), vehicle: other) was 98 % of control.
